Source: PubChem BioAssay AID330 (DTP/NCI, 2004)
Several values for one entry are separate records, joined by “and”; a condition that tells them apart may be missing. Equal values may be shown once. Inconclusive results and toxic doses are left out. How the source made its calls: active means survival T/C of 150% or more; inactive means T/C below 125% in these data.

Test system: P388 leukemia ip, CD2F1 mice, survival T/C
Test: NCI In Vivo Anticancer Drug Screen. Data for tumor model P388 Leukemia (intraperitoneal) in CD2F1 (CDF1) mice
Conditions: endpoint: median survival time, higher = longer survival
Procedure, shortened: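 Mice carrying the transplanted tumor received test compound or vehicle. Survival was recorded in each group, and the value is the treated-group measurement divided by that of the vehicle-treated control group.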

[1] = dose: 50.0 mg/kg/injection, schedule: Q04DX002 (ip), vehicle: saline
[2] = dose: 100.0 mg/kg/injection, schedule: Q04DX002 (ip), vehicle: saline
[3] = dose: 200.0 mg/kg/injection, schedule: Q04DX002 (ip), vehicle: saline
[4] = dose: 100.0 mg/kg/injection, schedule: Q04DX003 (ip), vehicle: saline with Tween-80
[5] = dose: 200.0 mg/kg/injection, schedule: Q04DX003 (ip), vehicle: saline with Tween-80
[6] = dose: 60.0 mg/kg/injection, schedule: Q01DX005 (ip), vehicle: saline
[7] = dose: 120.0 mg/kg/injection, schedule: Q01DX005 (ip), vehicle: saline
[8] = dose: 240.0 mg/kg/injection, schedule: Q01DX005 (ip), vehicle: saline
[9] = dose: 25.0 mg/kg/injection, schedule: Q01DX009 (ip), vehicle: Klucel (hydroxypropylcellulose) (HPC)

Measured: T/C

CN=C(NC)c1ccc(NC(=O)c2ccc(C(=O)Nc3ccc(C(=NC)NC)cc3)c([N+](=O)[O-])c2)cc1
inactive: dose: 1.56 mg/kg/injection, schedule: Q01DX005 (ip), vehicle: Klucel (hydroxypropylcellulose) (HPC) 106 % of control | dose: 3.12 mg/kg/injection, schedule: Q01DX005 (ip), vehicle: Klucel (hydroxypropylcellulose) (HPC) 118 % of control

OCc1c(-c2ccc(Cl)cc2)c(-c2ccccc2)c2n1CCC2
inactive: dose: 50.0 mg/kg/injection, schedule: Q01DX005 (ip), vehicle: Klucel (hydroxypropylcellulose) (HPC) 94 % of control | dose: 100.0 mg/kg/injection, schedule: Q01DX005 (ip), vehicle: Klucel (hydroxypropylcellulose) (HPC) 91 % of control | dose: 200.0 mg/kg/injection, schedule: Q01DX005 (ip), vehicle: Klucel (hydroxypropylcellulose) (HPC) 92 % of control

Cc1c[nH]c(=O)[nH]c1=O
inactive: dose: 32.0 mg/kg/injection, schedule: Q01DX009 (ip), vehicle: Klucel (hydroxypropylcellulose) (HPC) 99 % of control and 107 % of control | dose: 32.0 mg/kg/injection, schedule: Q01DX009 (ip), vehicle: saline with Tween-80 116 % of control | dose: 64.0 mg/kg/injection, schedule: Q01DX009 (ip), vehicle: Klucel (hydroxypropylcellulose) (HPC) 99 % of control and 102 % of control | dose: 64.0 mg/kg/injection, schedule: Q01DX009 (ip), vehicle: saline with Tween-80 106 % of control | dose: 128.0 mg/kg/injection, schedule: Q01DX009 (ip), vehicle: Klucel (hydroxypropylcellulose) (HPC) 100 % of control and 107 % of control | dose: 128.0 mg/kg/injection, schedule: Q01DX009 (ip), vehicle: saline with Tween-80 111 % of control | dose: 170.0 mg/kg/injection, schedule: Q04DX003 (ip), vehicle: saline with Tween-80 100 % of control | dose: 170.0 mg/kg/injection, schedule: Q## X003 (ip), vehicle: saline with Tween-80 100 % of control | dose: 256.0 mg/kg/injection, schedule: Q01DX009 (ip), vehicle: Klucel (hydroxypropylcellulose) (HPC) 100 % of control and 112 % of control | dose: 260.0 mg/kg/injection, schedule: Q04DX003 (ip), vehicle: saline with Tween-80 94 % of control | dose: 260.0 mg/kg/injection, schedule: Q## X003 (ip), vehicle: saline with Tween-80 94 % of control | dose: 390.0 mg/kg/injection, schedule: Q04DX003 (ip), vehicle: saline with Tween-80 95 % of control and 98 % of control | dose: 390.0 mg/kg/injection, schedule: Q## X003 (ip), vehicle: saline with Tween-80 95 % of control and 98 % of control | dose: 512.0 mg/kg/injection, schedule: Q01DX009 (ip), vehicle: Klucel (hydroxypropylcellulose) (HPC) 106 % of control and 93 % of control | dose: 512.0 mg/kg/injection, schedule: Q01DX009 (ip), vehicle: saline with Tween-80 98 % of control | dose: 520.0 mg/kg/injection, schedule: Q04DX003 (ip), vehicle: saline with Tween-80 95 % of control and 98 % of control | dose: 520.0 mg/kg/injection, schedule: Q## X003 (ip), vehicle: saline with Tween-80 95 % of control and 98 % of control

CCN(CC)CCNc1ccc(O)c2sc3ccccc3c(=O)c12
inactive: dose: 6.25 mg/kg/injection, schedule: Q01DX009 (ip), vehicle: saline + alcohol 94 % of control | dose: 12.5 mg/kg/injection, schedule: Q01DX009 (ip), vehicle: saline + alcohol 89 % of control | dose: 25.0 mg/kg/injection, schedule: Q01DX009 (ip), vehicle: saline + alcohol 99 % of control | dose: 50.0 mg/kg/injection, schedule: Q01DX009 (ip), vehicle: saline + alcohol 103 % of control

COCCOCCOCCOCCn1cc(F)c(=O)[nH]c1=O
inactive: [1] 104 % of control | [2] 94 % of control | [3] 100 % of control | dose: 400.0 mg/kg/injection, schedule: Q04DX002 (ip), vehicle: saline 94 % of control

CCS(=O)(=O)OCCF
inactive: dose: 0.78 mg/kg/injection, schedule: Q01DX009 (ip), vehicle: saline with Tween-80 106 % of control | dose: 1.56 mg/kg/injection, schedule: Q01DX009 (ip), vehicle: saline with Tween-80 111 % of control | dose: 3.12 mg/kg/injection, schedule: Q01DX009 (ip), vehicle: saline with Tween-80 106 % of control and 91 % of control

O=C(NCCSCCSCCSCCNC(=O)Oc1ccccc1)Oc1ccccc1
inactive: dose: 100.0 mg/kg/injection, schedule: Q01DX001 (ip), vehicle: Klucel (hydroxypropylcellulose) (HPC) 92 % of control | dose: 200.0 mg/kg/injection, schedule: Q01DX001 (ip), vehicle: Klucel (hydroxypropylcellulose) (HPC) 91 % of control

C/C=C1\C(=O)OC23C=CC4C(C(=O)OC)C(O)OC(OC12)C43 (configuration not stated)
inactive: dose: 0.12 mg/kg/injection, schedule: Q01DX009 (ip), vehicle: saline 89 % of control | dose: 0.25 mg/kg/injection, schedule: Q01DX009 (ip), vehicle: Klucel (hydroxypropylcellulose) (HPC) 100 % of control | dose: 0.25 mg/kg/injection, schedule: Q01DX009 (ip), vehicle: saline 104 % of control | dose: 0.5 mg/kg/injection, schedule: Q01DX009 (ip), vehicle: Klucel (hydroxypropylcellulose) (HPC) 99 % of control | dose: 0.5 mg/kg/injection, schedule: Q01DX009 (ip), vehicle: saline 106 % of control | dose: 1.0 mg/kg/injection, schedule: Q01DX009 (ip), vehicle: Klucel (hydroxypropylcellulose) (HPC) 98 % of control | dose: 1.0 mg/kg/injection, schedule: Q01DX009 (ip), vehicle: saline with Tween-80 106 % of control | dose: 1.0 mg/kg/injection, schedule: Q01DX009 (ip), vehicle: saline 101 % of control | dose: 2.0 mg/kg/injection, schedule: Q01DX009 (ip), vehicle: Klucel (hydroxypropylcellulose) (HPC) 98 % of control | dose: 2.0 mg/kg/injection, schedule: Q01DX009 (ip), vehicle: saline with Tween-80 110 % of control | dose: 4.0 mg/kg/injection, schedule: Q01DX009 (ip), vehicle: saline with Tween-80 107 % of control

COc1cc(O)ccc1C(=S)SC
inactive: [4] 106 % of control | [5] 99 % of control

OCC(CO)(CO)NCCCNC(CO)(CO)CO
inactive: [6] 98 % of control | [7] 101 % of control | [8] 97 % of control

CC1CC2(OC2C)C(=O)OC2CCN(C)C/C=C(/COC(=O)C1(C)O)C2=O (configuration not stated)
inactive: dose: 3.12 mg/kg/injection, schedule: Q01DX009 (ip), vehicle: Klucel (hydroxypropylcellulose) (HPC) 105 % of control | dose: 6.25 mg/kg/injection, schedule: Q01DX009 (ip), vehicle: Klucel (hydroxypropylcellulose) (HPC) 99 % of control | dose: 12.5 mg/kg/injection, schedule: Q01DX009 (ip), vehicle: Klucel (hydroxypropylcellulose) (HPC) 103 % of control | [9] 99 % of control | dose: 40.0 mg/kg/injection, schedule: Q01DX009 (ip), vehicle: Klucel (hydroxypropylcellulose) (HPC) 110 % of control | [1] 108 % of control | dose: 80.0 mg/kg/injection, schedule: Q01DX009 (ip), vehicle: Klucel (hydroxypropylcellulose) (HPC) 110 % of control | [2] 101 % of control | dose: 160.0 mg/kg/injection, schedule: Q01DX009 (ip), vehicle: Klucel (hydroxypropylcellulose) (HPC) 100 % of control | [3] 106 % of control

CN(C)c1ccc(/C=C2\SC(=S)N(CCCN3CCOCC3)C2=O)cc1
inactive: dose: 50.0 mg/kg/injection, schedule: Q01DX009 (ip), vehicle: saline with Tween-80 91 % of control | dose: 100.0 mg/kg/injection, schedule: Q01DX009 (ip), vehicle: saline with Tween-80 90 % of control | dose: 200.0 mg/kg/injection, schedule: Q01DX009 (ip), vehicle: saline with Tween-80 87 % of control

OC(Cn1cccc1)Cn1cccc1
inactive: [6] 100 % of control | [7] 103 % of control | [8] 100 % of control

CC(C)(C)C(=O)CC(O)(C(F)(F)Cl)C(F)(F)Cl
inactive: dose: 50.0 mg/kg/injection, schedule: Q04DX003 (ip), vehicle: saline with Tween-80 90 % of control | [4] 95 % of control | [5] 105 % of control

Cc1cccc(NC(=S)/N=C(\SCc2ccccc2)N(C)c2ccccc2)c1
inactive: dose: 50.0 mg/kg/injection, schedule: Q01DX005 (ip), vehicle: saline with Tween-80 90 % of control | dose: 100.0 mg/kg/injection, schedule: Q01DX005 (ip), vehicle: saline with Tween-80 93 % of control

CCOC(=O)C(SC(Cl)(S(=O)(=O)c1ccccc1)S(=O)(=O)c1ccccc1)C(=O)OCC
inactive: [9] 105 % of control and 109 % of control | dose: 50.0 mg/kg/injection, schedule: Q01DX009 (ip), vehicle: Klucel (hydroxypropylcellulose) (HPC) 116 % of control and 120 % of control and 121 % of control | dose: 100.0 mg/kg/injection, schedule: Q01DX009 (ip), vehicle: Klucel (hydroxypropylcellulose) (HPC) 115 % of control and 116 % of control and 124 % of control | dose: 200.0 mg/kg/injection, schedule: Q01DX009 (ip), vehicle: Klucel (hydroxypropylcellulose) (HPC) 110 % of control and 120 % of control and 121 % of control | dose: 400.0 mg/kg/injection, schedule: Q01DX009 (ip), vehicle: Klucel (hydroxypropylcellulose) (HPC) 109 % of control
